Experimental findings from patent US12398092B2, “Method for inhibiting or disrupting biofilm formation, or reducing biofilm” (RAMOT AT TEL-AVIV UNIVERSITY LTD., priority 2015, dated 2025) are described below.

What all share (type): cell-based
Assay [1] deals with tested biofilm-forming Gram-positive pathogens. The assay is described as follows: Biofilm inhibition, statements over all tested strains. The settings on record: highest concentration tested. The method, then: Analysis of biofilm inhibition. The assay was performed as previously described (Joseph et al., 2016; Feldman et al., 2012) with minor modifications. […] Next, 100 μL of serial 1:2 dilutions of compounds in TSB+1% glucose (32, 16, 8, 4, 2, 1, and 0.5 μg/mL) were prepared in flat-bottomed 96-well microplates (Costar, Corning). Control wells with no compounds and wells without bacteria containing each tested concentration of the compounds (blanks) were also prepared. An equal volume (100 μL) of bacterial suspensions diluted 1:100 (OD600=0.01) or 1:10 (OD600=0.1) in TSB+1% glucose was added to each well. […] The wells were vigorously rinsed at least four times with doubly distilled water (DDW). Next, 0.4% crystal violet (200 μL) was added to each well. After 45 min, wells were vigorously rinsed three times with DDW to remove unbound dye. After adding 200 μL of 30% acetic acid to each well, the plate was shaken for 15 min to release the dye. Biofilm formation was quantified by measuring the difference between absorbance of untreated and treated bacterial samples for each tested concentration of the compounds and the absorbance of appropriate blank well at 600 nm (A600) using Tecan plate reader. The MBIC50 was defined as the lowest concentration at which at least 50% reduction in biofilm formation was measured compared to untreated cells. […]

Another assay has as its system E. faecalis ATCC 29212. In words: Biofilm inhibition, crystal violet staining (MBIC50). The settings on record: double-dilution method; Table 1; read-out: MBIC50, strain D. The method, then: (§1) Analysis of biofilm inhibition. The assay was performed as previously described (Joseph et al., 2016; Feldman et al., 2012) with minor modifications. […] Next, 100 μL of serial 1:2 dilutions of compounds in TSB+1% glucose (32, 16, 8, 4, 2, 1, and 0.5 μg/mL) were prepared in flat-bottomed 96-well microplates (Costar, Corning). Control wells with no compounds and wells without bacteria containing each tested concentration of the compounds (blanks) were also prepared. An equal volume (100 μL) of bacterial suspensions diluted 1:100 (OD600=0.01) or 1:10 (OD600=0.1) in TSB+1% glucose was added to each well. […] The wells were vigorously rinsed at least four times with doubly distilled water (DDW). Next, 0.4% crystal violet (200 μL) was added to each well. After 45 min, wells were vigorously rinsed three times with DDW to remove unbound dye. After adding 200 μL of 30% acetic acid to each well, the plate was shaken for 15 min to release the dye. Biofilm formation was quantified by measuring the difference between absorbance of untreated and treated bacterial samples for each tested concentration of the compounds and the absorbance of appropriate blank well at 600 nm (A600) using Tecan plate reader. The MBIC50 was defined as the lowest concentration at which at least 50% reduction in biofilm formation was measured compared to untreated cells. Each concentration of compound was tested in five replicates, and three to six independent experiments were performed.

Assay [2] has as its system S. aureus subsp. aureus Rosenbach ATCC 33592 (MRSA). Described as above. To be noted: double-dilution method; Table 1; read-out: MBIC50, strain A. The method, then:
as §1

A further assay has as its system S. aureus BAA/043. The assay is described as above. To be noted: double-dilution method; Table 1; read-out: MBIC50, strain C. As to the method:
as §1

In the next assay the test system is S. mutans ATCC 700610. The description is as above. To be noted: double-dilution method; Table 1; read-out: MBIC50, strain F. The method, then: as §1
The subject of a further assay is S. epidermidis RP62A. The assay is described as above. To be noted: double-dilution method; Table 1; read-out: MBIC50, strain E. The method, then: as §1
The subject of the next assay is S. aureus ATCC 29213. The description is as above. To be noted: double-dilution method; Table 1; read-out: MBIC50, strain B. As to the method:
as §1

The next assay has as its system mature biofilms. The assay is described as follows: Biofilm eradication. To be noted: mature 24-h-old biofilms. The method, then: Analysis of biofilm eradication. Biofilm eradication activity of the tested compounds determined against mature 24-h-old biofilms was performed as previously described (Pompilio et al., 2015). […] Untreated biofilm samples were used as control. Biofilms were quantified by measuring the absorbance at 600 nm. […] Concentrations were tested in five replicates, and three independent experiments were performed.

As to `C[N+](C)(C)C.[Cl-]` [TMA—Cl, tetramethylammonium chloride], in assay [1], the “Biofilm formation: no inhibition up to (concentration)” value is over 208 µM. The IC50 (with E. faecalis ATCC 29212; in assay [2]; with S. aureus BAA/043; with S. mutans ATCC 700610; in the assay on S. epidermidis RP62A; in the assay with S. aureus ATCC 29213) was over 292 µM in each case.
“deca-N-methyl-imidazolium pillar[5]arene [Compound 22]”: the IC50 with E. faecalis ATCC 29212 came out at 0.4 µM; in assay [2], 0.8 µM; in the assay on S. aureus BAA/043, 1.6 µM; with S. mutans ATCC 700610, 6.4 µM; in the assay on S. epidermidis RP62A, 3.2 µM; with S. aureus ATCC 29213, 1.6 µM.
Take `C[N+](C)(C)C.[Br-]` [TMA—Br, tetramethylammonium bromide]: the “Biofilm formation: no inhibition up to (concentration)” value in assay [1] is over 292 µM. The IC50 (in the assay on E. faecalis ATCC 29212; in assay [2]; with S. aureus BAA/043; with S. mutans ATCC 700610; in the assay with S. epidermidis RP62A; in the assay on S. aureus ATCC 29213) was over 208 µM in each case.
For the compound “deca-trimethylammonium pillar[5]arene [Compound 21]”, the “Eradication of mature biofilms” value with mature biofilms is “did not eradicate mature biofilms”. In addition, the IC50 came out at 0.9 µM with E. faecalis ATCC 29212; 0.9 µM in assay [2]; 3.5 µM in the assay on S. aureus BAA/043; 1.8 µM with S. mutans ATCC 700610; 3.5 µM with S. epidermidis RP62A; 3.5 µM with S. aureus ATCC 29213.
